The values that follow come from patent US20090192149A1, “Imidazo Compounds” (SPEEDEL EXPERIMENTA AG, priority 2006, published 2009).

The IC50 is the concentration needed to halve the response being measured.

This assay addresses T1, recombinant human Cyp19 enzyme (Homo sapiens, UniProt P11511).
T1 construct: purchased Becton Dickinson Biosciences, San Jose, Calif., USA
T1 sequence (P11511 1-503): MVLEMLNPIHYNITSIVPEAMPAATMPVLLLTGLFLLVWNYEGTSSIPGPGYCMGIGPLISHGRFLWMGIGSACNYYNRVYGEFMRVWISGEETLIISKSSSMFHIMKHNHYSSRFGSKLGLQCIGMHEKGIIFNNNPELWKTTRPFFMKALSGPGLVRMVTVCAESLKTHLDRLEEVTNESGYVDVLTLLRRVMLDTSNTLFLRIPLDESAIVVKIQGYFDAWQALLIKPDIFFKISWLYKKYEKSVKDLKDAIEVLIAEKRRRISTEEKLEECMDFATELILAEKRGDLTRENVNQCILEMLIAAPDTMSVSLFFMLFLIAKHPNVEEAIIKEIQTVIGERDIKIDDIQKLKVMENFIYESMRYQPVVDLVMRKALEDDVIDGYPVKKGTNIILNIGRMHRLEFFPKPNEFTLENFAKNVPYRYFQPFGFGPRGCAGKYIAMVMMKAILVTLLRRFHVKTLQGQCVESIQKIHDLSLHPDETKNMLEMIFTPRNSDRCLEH
The assay can be described thus: Cyp19/MFC high throughput inhibition kit (Becton Dickinson). In kind it is biochemical. Conditions: recombinant human Cyp19 supersomes, MFC substrate. As to the method:
A compound of formula (I) is to be understood as a compound having a specific configuration around the designated asymmetric carbon atom labelled “*”. If a synthesis method is used which leads to racemic compounds, the racemate resolution is carried out in accordance with conventional methods, such as via a chiral HPLC column. […] The aforementioned activity can, readily and as described below, be determined by using a commercial Cyp19 enzyme inhibition kit, preferably the Cyp19/methoxy-4-trifluoromethyl-coumarin (MFC) high throughput inhibition kit (Becton Dickinson Biosciences, San Jose, Calif., USA) as described hereafter. In the above-mentioned inhibition kit, compounds of the formula (I) show an inhibiting activity which is at least 10 times higher, but preferably 20 times higher, or more preferably 40 times higher, than the substances of the formula (I) with the opposite configuration around the asymmetric carbon atom labelled “*”. A higher inhibiting activity corresponds to a lower IC50 value.
These effects are demonstrable in in vitro assay tests using cell-free and cellular systems. […] The Cyp19/Methoxy-4-trifluoromethyl-coumarin (MFC) high throughput inhibition kit (Becton Dickinson Biosciences, San Jose, Calif., USA), for example, is designed to screen for potential inhibitors of Cyp19 catalytic activity in a 96-well format. […]

`N#Cc1ccc(C2COCc3cncn32)cc1` (centres unmarked) [antipode of 1]: the IC50 came to 8.35 µM. The figure for `N#Cc1ccc(C2COCc3cncn32)cc1` (single isomer, unassigned) [Example 1, 4-(5,6-Dihydro-8H-imidazo[5,1-c][1,4]oxazin-5-yl)benzonitrile] is 0.0048 µM.
